Activity calls are given as the source filed them. The rule behind the calls is not given here.
Tests used:
[1] = target: Mitogen-activated protein kinase 14 (Homo sapiens) (UniProt Q16539); test: Inhibition of recombinant human N-terminal GST-tagged P38alpha (1 to 360 residues) expressed in Escherichia coli assessed as remaining activity at 1 uM using MBP as substrate incubated for 30 mins in presence of [gamma-33P]ATP by filter binding method relative to control
[2] = system: RAC-beta serine/threonine-protein kinase (Homo sapiens), P31751 [S474D]; test: Inhibition of recombinant human N-terminal His6-tagged PKBbeta S474D mutant (120 to 481 residues) expressed in baculovirus infected Sf21 cells assessed as remaining activity at 1 uM using crosstide peptide as substrate incubated for 30 mins in presence of [gamma-33P]ATP by filter binding method relative to control
[3] = target: Mitogen-activated protein kinase 9 (Homo sapiens) (UniProt P45984); test: Inhibition of recombinant human N-terminal His6-tagged JNK2 (1 to 424 residues) expressed in baculovirus infected Sf21 cells assessed as remaining activity at 1 uM using ATF2 as substrate incubated for 30 mins in presence of [gamma-33P]ATP by filter binding method relative to control
[4] = target: Serine/threonine-protein kinase pim-2 (Homo sapiens) (UniProt Q9P1W9); test: Inhibition of recombinant human N-terminal GST-tagged PIM2 (2 to 334 residues) expressed in Escherichia coli assessed as remaining activity at 1 uM using RSRHSSYPAGT as substrate incubated for 30 mins in presence of [gamma-33P]ATP by filter binding method relative to control
[5] = target: Mitogen-activated protein kinase kinase kinase kinase 2 (Homo sapiens) (UniProt Q12851); test: Inhibition of recombinant human N-terminal His6-tagged GCK (2 to 812 residues) expressed in baculovirus infected Sf21 cells assessed as remaining activity at 1 uM using MBP as substrate incubated for 30 mins in presence of [gamma-33P]ATP by filter binding method relative to control
[6] = target: Ephrin type-A receptor 4 (Homo sapiens) (UniProt P54764); test: Inhibition of recombinant human N-terminal GST-tagged EPHA4 (570 to 986 residues) expressed in Escherichia coli assessed as remaining activity at 1 uM using Poly (Glu,Tyr) as substrate incubated for 30 mins in presence of [gamma-33P]ATP by filter binding method relative to control
[7] = target: Fibroblast growth factor receptor 3 (Homo sapiens) (UniProt P22607); test: Inhibition of human FGFR3 at 1 uM using polyEY as substrate in presence of 33P-ATP by ProQinase assay
[8] = target: Cytoplasmic tyrosine-protein kinase BMX (Homo sapiens) (UniProt P51813); test: Inhibition of human BMX at 1 uM using polyEy as substrate in presence of 33P-ATP by ProQinase assay
[9] = target: Protein kinase C beta type (Homo sapiens) (UniProt P05771); test: Inhibition of human PKCbeta1 at 1 uM using 3xChocktide-PKC as substrate in presence of 33P-ATP by ProQinase assay
[10] = target: Mitogen-activated protein kinase kinase kinase kinase 2 (Homo sapiens) (UniProt Q12851); test: Inhibition of human MAP4K2 at 1 uM using 3xChocktide-PKC as substrate in presence of 33P-ATP by ProQinase assay
[11] = target: RAC-gamma serine/threonine-protein kinase (Homo sapiens) (UniProt Q9Y243); test: Inhibition of human AKT3 at 1 uM using RBER-GSK3 as substrate in presence of 33P-ATP by ProQinase assay
[12] = target: Homeodomain-interacting protein kinase 1 (Homo sapiens) (UniProt Q86Z02); test: Inhibition of human HIPK1 at 1 uM using RBER-CHKtide as substrate in presence of 33P-ATP by ProQinase assay
[13] = target: MAP/microtubule affinity-regulating kinase 4 (Homo sapiens) (UniProt Q96L34); test: Inhibition of human MARK4 at 1 uM using RBER-CHKtide as substrate in presence of 33P-ATP by ProQinase assay
[14] = target: Serine/threonine-protein kinase WNK2 (Homo sapiens) (UniProt Q9Y3S1); test: Inhibition of human WNK2 at 1 uM using RBER-CHKtide as substrate in presence of 33P-ATP by ProQinase assay
[15] = target: Serine/threonine-protein kinase Nek11 (Homo sapiens) (UniProt Q8NG66); test: Inhibition of human NEK11 at 1 uM using MBP as substrate in presence of 33P-ATP by ProQinase assay
[16] = target: Activin receptor type-1B (Homo sapiens) (UniProt P36896); test: Inhibition of human ACVR1B at 1 uM using RBER-CHKtide as substrate in presence of 33P-ATP by ProQinase assay
[17] = target: Serine/threonine-protein kinase MRCK alpha (Homo sapiens) (UniProt Q5VT25); test: Inhibition of human CDC42BPA at 1 uM using RB-S6P as substrate in presence of 33P-ATP by ProQinase assay
[18] = target: Bone morphogenetic protein receptor type-1A (Homo sapiens) (UniProt P36894); test: Inhibition of human BMPR1A at 1 uM using casein as substrate in presence of 33P-ATP by ProQinase assay
[19] = target: Casein kinase II subunit alpha (Homo sapiens) (UniProt P68400); test: Inhibition of human CK2alpha1 at 1 uM using casein as substrate in presence of 33P-ATP by ProQinase assay
[20] = target: Serine/threonine-protein kinase tousled-like 2 (Homo sapiens) (UniProt Q86UE8); test: Inhibition of human TLK2 at 1 uM using RB-S6P as substrate in presence of 33P-ATP by ProQinase assay
[21] = target: Mitogen-activated protein kinase kinase kinase kinase 5 (Homo sapiens) (UniProt Q9Y4K4); test: Inhibition of human MAP4K5 at 1 uM using casein as substrate in presence of 33P-ATP by ProQinase assay
[22] = target: Serine/threonine-protein kinase WNK3 (Homo sapiens) (UniProt Q9BYP7); test: Inhibition of human WNK3 at 1 uM using RB-S6P as substrate in presence of 33P-ATP by ProQinase assay
[23] = target: Testis-specific serine/threonine-protein kinase 2 (Homo sapiens) (UniProt Q96PF2); test: Inhibition of human TSK2 at 1 uM using RBER-CHKtide as substrate in presence of 33P-ATP by ProQinase assay
[24] = target: Serine/threonine-protein kinase Sgk3 (Homo sapiens) (UniProt Q96BR1); test: Inhibition of human SGK3 at 1 uM using RBER-GSK3 as substrate in presence of 33P-ATP by ProQinase assay
[25] = target: Mitogen-activated protein kinase 14 (Homo sapiens) (UniProt Q16539); test: Inhibition of human p38alpha at 1 uM using ATF2 as substrate in presence of 33P-ATP by ProQinase assay
[26] = target: Mitogen-activated protein kinase 15 (Homo sapiens) (UniProt Q8TD08); test: Inhibition of human ERK7 at 1 uM using RBER-CHKtide as substrate in presence of 33P-ATP by ProQinase assay
[27] = target: Phosphatidylinositol 4,5-bisphosphate 3-kinase catalytic subunit gamma isoform (Homo sapiens, UniProt P48736); test: Inhibition of human PIK3CG using PIP2/PS as substrate by ADP-Glo assay

Chain of Mitogen-activated protein kinase kinase kinase kinase 2 (Homo sapiens) (Q12851 whole entry, the tested form may be a part): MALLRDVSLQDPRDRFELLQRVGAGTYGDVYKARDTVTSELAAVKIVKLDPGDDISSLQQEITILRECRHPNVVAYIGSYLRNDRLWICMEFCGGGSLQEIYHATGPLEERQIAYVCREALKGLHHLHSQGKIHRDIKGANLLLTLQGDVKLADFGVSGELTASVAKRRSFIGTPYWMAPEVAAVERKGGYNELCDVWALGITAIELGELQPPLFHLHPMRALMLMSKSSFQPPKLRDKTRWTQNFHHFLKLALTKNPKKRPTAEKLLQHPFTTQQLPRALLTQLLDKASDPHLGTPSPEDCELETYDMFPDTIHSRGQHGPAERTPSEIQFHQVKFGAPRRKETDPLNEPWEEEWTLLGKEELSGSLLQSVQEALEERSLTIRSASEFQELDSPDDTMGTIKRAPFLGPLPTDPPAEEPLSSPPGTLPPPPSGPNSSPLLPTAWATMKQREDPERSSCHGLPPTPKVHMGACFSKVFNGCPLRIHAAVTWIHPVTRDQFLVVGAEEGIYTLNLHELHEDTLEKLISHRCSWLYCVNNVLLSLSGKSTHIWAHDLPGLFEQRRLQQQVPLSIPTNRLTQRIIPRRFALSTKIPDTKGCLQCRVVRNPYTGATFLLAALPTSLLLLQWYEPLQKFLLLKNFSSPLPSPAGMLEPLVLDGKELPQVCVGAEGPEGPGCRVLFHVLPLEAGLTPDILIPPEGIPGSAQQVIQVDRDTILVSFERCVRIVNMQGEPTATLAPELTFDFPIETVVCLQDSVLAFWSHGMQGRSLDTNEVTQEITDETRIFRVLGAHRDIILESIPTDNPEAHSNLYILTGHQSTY
Chain of Mitogen-activated protein kinase 14 (Homo sapiens) (Q16539 whole entry, the tested form may be a part): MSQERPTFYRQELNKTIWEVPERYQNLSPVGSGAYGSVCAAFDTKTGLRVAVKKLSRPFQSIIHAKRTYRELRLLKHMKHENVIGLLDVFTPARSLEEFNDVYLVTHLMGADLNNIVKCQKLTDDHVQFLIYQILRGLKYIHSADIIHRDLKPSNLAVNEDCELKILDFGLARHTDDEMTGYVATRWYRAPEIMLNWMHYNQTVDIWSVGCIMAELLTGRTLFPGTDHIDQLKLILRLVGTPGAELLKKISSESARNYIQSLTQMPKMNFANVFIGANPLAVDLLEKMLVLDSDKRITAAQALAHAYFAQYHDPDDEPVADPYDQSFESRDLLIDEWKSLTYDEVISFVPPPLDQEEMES
Chain of Mitogen-activated protein kinase 15 (Homo sapiens) (Q8TD08 whole entry, canonical isoform): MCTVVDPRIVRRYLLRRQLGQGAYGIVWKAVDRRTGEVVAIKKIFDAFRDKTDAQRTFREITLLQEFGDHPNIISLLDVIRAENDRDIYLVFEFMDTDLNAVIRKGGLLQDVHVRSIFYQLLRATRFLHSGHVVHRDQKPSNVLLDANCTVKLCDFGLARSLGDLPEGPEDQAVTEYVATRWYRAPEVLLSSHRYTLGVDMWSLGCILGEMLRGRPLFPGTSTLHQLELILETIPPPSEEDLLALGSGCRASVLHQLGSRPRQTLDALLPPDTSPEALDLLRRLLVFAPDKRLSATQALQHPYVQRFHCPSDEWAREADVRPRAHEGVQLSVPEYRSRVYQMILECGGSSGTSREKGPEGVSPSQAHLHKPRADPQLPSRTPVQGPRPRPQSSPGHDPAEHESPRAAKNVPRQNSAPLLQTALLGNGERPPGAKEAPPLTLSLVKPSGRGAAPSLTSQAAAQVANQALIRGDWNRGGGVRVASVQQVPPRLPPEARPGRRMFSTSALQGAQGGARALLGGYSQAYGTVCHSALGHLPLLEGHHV
Chain of Protein kinase C beta type (Homo sapiens) (P05771 2-671 limits assumed): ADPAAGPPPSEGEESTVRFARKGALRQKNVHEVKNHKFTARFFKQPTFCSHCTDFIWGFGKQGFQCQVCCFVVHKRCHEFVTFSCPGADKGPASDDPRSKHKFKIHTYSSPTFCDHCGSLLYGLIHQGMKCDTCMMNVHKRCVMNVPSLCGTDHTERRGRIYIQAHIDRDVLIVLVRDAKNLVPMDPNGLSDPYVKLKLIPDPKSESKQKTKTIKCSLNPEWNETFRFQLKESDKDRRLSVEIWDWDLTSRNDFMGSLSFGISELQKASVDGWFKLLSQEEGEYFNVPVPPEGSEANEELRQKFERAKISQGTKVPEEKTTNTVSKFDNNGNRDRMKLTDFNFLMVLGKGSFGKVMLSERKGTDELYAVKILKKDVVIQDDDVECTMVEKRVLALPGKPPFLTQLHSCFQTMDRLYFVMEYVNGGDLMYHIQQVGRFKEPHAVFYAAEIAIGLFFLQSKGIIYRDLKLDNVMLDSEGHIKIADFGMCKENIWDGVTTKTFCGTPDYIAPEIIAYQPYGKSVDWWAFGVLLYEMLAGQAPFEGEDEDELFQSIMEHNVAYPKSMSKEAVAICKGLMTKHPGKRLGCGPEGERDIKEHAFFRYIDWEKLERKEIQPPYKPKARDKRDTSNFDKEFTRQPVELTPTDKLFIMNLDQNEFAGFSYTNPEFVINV
Chain of Bone morphogenetic protein receptor type-1A (Homo sapiens) (P36894 whole entry): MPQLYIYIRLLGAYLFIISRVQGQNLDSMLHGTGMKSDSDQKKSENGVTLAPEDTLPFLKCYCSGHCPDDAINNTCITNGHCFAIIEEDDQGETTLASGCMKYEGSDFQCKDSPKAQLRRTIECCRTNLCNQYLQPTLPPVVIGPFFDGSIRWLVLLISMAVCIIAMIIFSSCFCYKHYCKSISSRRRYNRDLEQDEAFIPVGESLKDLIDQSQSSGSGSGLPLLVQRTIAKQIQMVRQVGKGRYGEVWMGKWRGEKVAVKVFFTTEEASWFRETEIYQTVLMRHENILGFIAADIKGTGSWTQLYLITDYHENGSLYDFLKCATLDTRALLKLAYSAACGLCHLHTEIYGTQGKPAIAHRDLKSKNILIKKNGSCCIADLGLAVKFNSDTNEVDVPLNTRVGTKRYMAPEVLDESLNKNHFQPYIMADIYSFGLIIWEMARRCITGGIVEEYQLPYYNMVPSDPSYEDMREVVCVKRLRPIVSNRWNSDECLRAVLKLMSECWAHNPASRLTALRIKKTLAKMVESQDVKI
Chain of Serine/threonine-protein kinase Sgk3 (Homo sapiens) (Q96BR1 whole entry): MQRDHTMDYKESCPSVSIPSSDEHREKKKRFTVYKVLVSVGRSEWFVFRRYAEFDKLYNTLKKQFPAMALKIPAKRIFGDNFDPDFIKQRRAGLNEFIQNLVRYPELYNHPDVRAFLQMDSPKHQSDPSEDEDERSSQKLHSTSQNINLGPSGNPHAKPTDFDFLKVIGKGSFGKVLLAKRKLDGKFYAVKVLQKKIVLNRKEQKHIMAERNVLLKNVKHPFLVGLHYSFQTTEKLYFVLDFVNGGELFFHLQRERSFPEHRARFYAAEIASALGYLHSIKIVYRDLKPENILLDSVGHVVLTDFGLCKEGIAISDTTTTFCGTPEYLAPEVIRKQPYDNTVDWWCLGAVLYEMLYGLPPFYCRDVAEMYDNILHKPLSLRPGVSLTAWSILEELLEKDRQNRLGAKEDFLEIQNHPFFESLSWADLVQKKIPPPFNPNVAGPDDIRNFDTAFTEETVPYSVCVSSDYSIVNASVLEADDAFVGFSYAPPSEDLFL
Chain of Activin receptor type-1B (Homo sapiens) (P36896 whole entry): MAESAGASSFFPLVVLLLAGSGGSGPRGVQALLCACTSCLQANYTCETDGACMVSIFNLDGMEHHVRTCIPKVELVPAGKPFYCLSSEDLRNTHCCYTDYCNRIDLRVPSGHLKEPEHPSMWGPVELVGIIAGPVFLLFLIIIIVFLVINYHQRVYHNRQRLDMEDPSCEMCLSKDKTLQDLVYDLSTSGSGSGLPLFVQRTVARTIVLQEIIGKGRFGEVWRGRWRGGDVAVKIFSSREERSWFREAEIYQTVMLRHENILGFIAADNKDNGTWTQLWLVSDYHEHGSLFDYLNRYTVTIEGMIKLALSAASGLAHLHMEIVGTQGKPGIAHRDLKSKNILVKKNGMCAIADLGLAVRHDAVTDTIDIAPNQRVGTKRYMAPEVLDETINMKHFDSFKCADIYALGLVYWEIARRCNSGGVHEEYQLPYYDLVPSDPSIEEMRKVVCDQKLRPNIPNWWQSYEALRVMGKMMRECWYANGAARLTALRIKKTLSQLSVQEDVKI
Chain of Serine/threonine-protein kinase tousled-like 2 (Homo sapiens) (Q86UE8 whole entry, looked up): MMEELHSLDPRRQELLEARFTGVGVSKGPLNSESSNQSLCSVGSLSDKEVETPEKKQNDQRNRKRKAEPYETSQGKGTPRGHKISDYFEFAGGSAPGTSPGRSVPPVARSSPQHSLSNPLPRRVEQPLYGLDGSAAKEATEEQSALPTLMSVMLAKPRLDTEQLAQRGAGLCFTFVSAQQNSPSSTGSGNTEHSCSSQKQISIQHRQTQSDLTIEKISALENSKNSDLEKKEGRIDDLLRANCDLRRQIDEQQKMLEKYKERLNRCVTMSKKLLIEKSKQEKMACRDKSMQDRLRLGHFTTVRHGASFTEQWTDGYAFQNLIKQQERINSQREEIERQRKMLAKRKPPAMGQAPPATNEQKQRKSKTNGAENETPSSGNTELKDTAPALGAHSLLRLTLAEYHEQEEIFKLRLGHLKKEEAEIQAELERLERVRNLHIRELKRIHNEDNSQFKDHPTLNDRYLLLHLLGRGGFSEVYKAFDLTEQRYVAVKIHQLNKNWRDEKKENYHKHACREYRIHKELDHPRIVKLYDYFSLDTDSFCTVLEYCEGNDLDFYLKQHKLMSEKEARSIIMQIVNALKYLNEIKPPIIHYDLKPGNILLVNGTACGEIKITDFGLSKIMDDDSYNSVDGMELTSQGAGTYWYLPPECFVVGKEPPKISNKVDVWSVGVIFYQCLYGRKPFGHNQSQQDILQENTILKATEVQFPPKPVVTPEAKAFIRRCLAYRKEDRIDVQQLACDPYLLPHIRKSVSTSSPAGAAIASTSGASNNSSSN
Chain of Serine/threonine-protein kinase pim-2 (Homo sapiens) (Q9P1W9 whole entry, looked up, the tested form may be a part): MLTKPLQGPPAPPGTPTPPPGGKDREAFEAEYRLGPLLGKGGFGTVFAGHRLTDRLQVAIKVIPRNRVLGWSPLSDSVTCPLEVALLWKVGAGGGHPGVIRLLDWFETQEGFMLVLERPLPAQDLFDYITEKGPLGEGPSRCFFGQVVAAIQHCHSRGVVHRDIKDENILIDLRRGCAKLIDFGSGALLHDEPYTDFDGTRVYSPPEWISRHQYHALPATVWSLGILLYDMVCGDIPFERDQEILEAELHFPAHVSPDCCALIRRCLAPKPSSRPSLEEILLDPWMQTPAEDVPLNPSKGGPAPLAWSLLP

Q: For `CC(C)(O)CNc1ncc(-c2ccnc(Nc3ccnc(Cl)c3)n2)c(CC2CC2)n1`, which Activity [1] is on record?
A: 125%

Q: And the Activity [2]?
A: 123%

Q: What about the Activity [3] of the same compound?
A: 113%

Q: And the Activity [4]?
A: 113%

Q: What about the Activity [5] of the same compound?
A: 104%

Q: What about the Activity [6] of the same compound?
A: 93%

Q: What about the inhibition [7] of the same compound?
A: inactive

Q: And the inhibition [8]?
A: inactive

Q: What about the inhibition [9] of the same compound?
A: inactive

Q: What about the inhibition [10] of the same compound?
A: inactive

Q: And the inhibition [11]?
A: inactive

Q: And the inhibition [12]?
A: inactive

Q: What about the inhibition [13] of the same compound?
A: inactive

Q: And the inhibition [14]?
A: inactive

Q: And the inhibition [15]?
A: inactive

Q: What about the inhibition [16] of the same compound?
A: inactive

Q: And the inhibition [17]?
A: inactive

Q: What about the inhibition [18] of the same compound?
A: inactive

Q: And the inhibition [19]?
A: inactive

Q: What about the inhibition [20] of the same compound?
A: inactive

Q: And the inhibition [21]?
A: inactive

Q: What about the inhibition [22] of the same compound?
A: inactive

Q: And the inhibition [23]?
A: inactive

Q: What about the inhibition [24] of the same compound?
A: inactive

Q: What about the inhibition [25] of the same compound?
A: inactive

Q: And the inhibition [26]?
A: inactive

Q: What about the IC50 [27] of the same compound?
A: > 10 µM
